Earlier results, collected in patent US11737976B2, “Drug delivery means” (priority 2006, dated 2023).
Read-outs that look alike come from different tables or passages of the source. One block for each compound: values may come before it.

Legend:
[1] = system: cells
[2] = system: endothelial and smooth muscle cells
[3] = system: fibroblasts
[4] = system: arterial smooth muscle cell
[5] = system: oxidized cholesterols present in the plasma; conditions: increased concentrations of vitamin E in the blood; some oxidized cholesterols, not all; not reversed once packed into plaques

Compound: CC(C)CCC[C@@H](C)[C@H]1CC[C@H]2[C@@H]3C(=O)C=C4C[C@@H](O)CC[C@]4(C)[C@H]3CC[C@]12C [7-Keto, 5-Cholesten-3β-ol-7-one]
- cytotoxicity relative to the other oxidized cholesterols studied [1]: most cytotoxic
- induction of apoptosis [2]: able to induce apoptosis
- apoptosis in fibroblasts [3]: did not cause apoptosis

Compound: CC(C)CCC[C@@H](C)[C@H]1CC[C@H]2[C@@H]3[C@@H](O)C=C4C[C@@H](O)CC[C@]4(C)[C@H]3CC[C@]12C [7B, 7β-hydroxycholesterol]
- induction of apoptosis ([2]; cells of the vascular wall): able to induce apoptosis
- apoptosis in fibroblasts ([3]; necrosis occurred instead): did not cause apoptosis

- changes in the arterial smooth muscle cell [4]: causes changes
Compound: C[C@H](CCCC(C)(C)O)[C@H]1CC[C@H]2[C@@H]3CC=C4C[C@@H](O)CC[C@]4(C)[C@H]3CC[C@]12C [25OH, 25-hydroxycholesterol]

Compound: vitamin E
- lowering the amount of oxidized cholesterols in plasma [5]: effective in lowering the amount of some oxidized cholesterols
